Measured values taken from the NIST ThermoML archive (doi:10.1016/j.jct.2013.06.003).
Values joined by “and” are separate entries in the source; they are usually repeats but may differ in a detail not shown here. Equal entries are not always repeated. Numbers after ± are expanded uncertainties.

Tests used:
[1] = Crystal; for Normal melting temperature: DTA; for vapor or sublimation pressure: Calculated from knudsen effusion weight loss
[2] = Molar enthalpy of transition or fusion; conditions: Crystal; DSC

## N#Cc1ccccc1Br [2-bromobenzonitrile]
[1]
  Normal melting temperature: 54.0 ± 0.7 °C
[2]
  Molar enthalpy of transition or fusion: 4.11 ± 0.167 kcal/mol

## N#Cc1ccccc1I [2-iodobenzonitrile]
[1]; 283.19 K
  vapor or sublimation pressure: 0.000104 ± 5e-06 kPa and 0.000103 ± 5e-06 kPa and 0.000101 ± 5e-06 kPa
[1]; 285.15 K
  vapor or sublimation pressure: 0.000128 ± 6e-06 kPa and 0.000129 ± 6e-06 kPa and 0.000125 ± 6e-06 kPa
[1]; 287.17 K
  vapor or sublimation pressure: 0.00016 ± 8e-06 kPa and 0.000159 ± 8e-06 kPa and 0.000168 ± 8e-06 kPa
[1]; 288.91 K
  vapor or sublimation pressure: 0.000199 ± 1e-05 kPa and 0.000205 ± 1e-05 kPa
[1]; 291.13 K
  vapor or sublimation pressure: 0.000263 ± 1.3e-05 kPa and 0.000257 ± 1.3e-05 kPa and 0.000268 ± 1.3e-05 kPa
[1]; 293.15 K
  vapor or sublimation pressure: 0.000336 ± 1.7e-05 kPa and 0.000341 ± 1.7e-05 kPa and 0.000346 ± 1.7e-05 kPa
[1]; 295.15 K
  vapor or sublimation pressure: 0.000419 ± 2.1e-05 kPa and 0.000414 ± 2.1e-05 kPa and 0.000427 ± 2.1e-05 kPa
[1]; 297.15 K
  vapor or sublimation pressure: 0.000521 ± 2.6e-05 kPa and 0.000547 ± 2.7e-05 kPa
[1]; 299.12 K
  vapor or sublimation pressure: 0.000651 ± 3.3e-05 kPa and 0.00066 ± 3.3e-05 kPa and 0.000671 ± 3.4e-05 kPa
[1]; 301.15 K
  vapor or sublimation pressure: 0.000857 ± 4.3e-05 kPa and 0.000861 ± 4.3e-05 kPa and 0.000864 ± 4.3e-05 kPa
[1]; 303.17 K
  vapor or sublimation pressure: 0.00103 ± 0.0001 kPa
[1]
  Normal melting temperature: 53.54 ± 0.39 °C
[2]
  Molar enthalpy of transition or fusion: 3.97 ± 0.311 kcal/mol

## N#Cc1cccc(Br)c1 [3-bromobenzonitrile]
[2]
  Molar enthalpy of transition or fusion: 3.97 ± 0.454 kcal/mol

## N#Cc1cccc(I)c1 [3-iodobenzonitrile]
[1]; 276.18 K
  vapor or sublimation pressure: 9.88e-05 ± 5e-06 kPa and 0.0001 ± 5e-06 kPa and 9.93e-05 ± 5e-06 kPa
[1]; 278.16 K
  vapor or sublimation pressure: 0.000122 ± 6e-06 kPa and 0.000125 ± 6e-06 kPa and 0.000123 ± 6e-06 kPa
[1]; 280.26 K
  vapor or sublimation pressure: 0.000161 ± 8e-06 kPa and 0.00016 ± 8e-06 kPa and 0.000163 ± 8e-06 kPa
[1]; 282.15 K
  vapor or sublimation pressure: 0.000204 ± 1e-05 kPa and 0.000206 ± 1e-05 kPa and 0.000207 ± 1e-05 kPa
[1]; 284.15 K
  vapor or sublimation pressure: 0.000269 ± 1.3e-05 kPa
[1]; 286.17 K
  vapor or sublimation pressure: 0.00034 ± 1.7e-05 kPa and 0.000339 ± 1.7e-05 kPa and 0.000336 ± 1.7e-05 kPa
[1]; 288.17 K
  vapor or sublimation pressure: 0.000437 ± 2.2e-05 kPa and 0.000432 ± 2.2e-05 kPa and 0.000441 ± 2.2e-05 kPa
[1]; 290.14 K
  vapor or sublimation pressure: 0.000539 ± 2.7e-05 kPa and 0.000537 ± 2.7e-05 kPa and 0.00054 ± 2.7e-05 kPa
[1]; 292.13 K
  vapor or sublimation pressure: 0.00069 ± 3.5e-05 kPa and 0.000686 ± 3.4e-05 kPa and 0.000699 ± 3.5e-05 kPa
[1]; 294.21 K
  vapor or sublimation pressure: 0.000869 ± 4.4e-05 kPa and 0.000876 ± 4.4e-05 kPa and 0.000882 ± 4.4e-05 kPa
[1]; 296.14 K
  vapor or sublimation pressure: 0.0011 ± 0.00011 kPa and 0.00111 ± 0.00011 kPa
[1]
  Normal melting temperature: 40.12 ± 0.39 °C
[2]
  Molar enthalpy of transition or fusion: 3.61 ± 0.311 kcal/mol

## N#Cc1ccc(Br)cc1 [4-bromobenzonitrile]
[2]
  Molar enthalpy of transition or fusion: 4.95 ± 0.263 kcal/mol

## N#Cc1ccc(I)cc1 [4-iodobenzonitrile]
[1]; 294.17 K
  vapor or sublimation pressure: 0.000111 ± 6e-06 kPa and 0.000109 ± 5e-06 kPa and 0.00011 ± 6e-06 kPa
[1]; 296.2 K
  vapor or sublimation pressure: 0.000141 ± 7e-06 kPa and 0.000143 ± 7e-06 kPa
[1]; 298.18 K
  vapor or sublimation pressure: 0.000182 ± 9e-06 kPa
[1]; 300.18 K
  vapor or sublimation pressure: 0.000226 ± 1.1e-05 kPa and 0.000228 ± 1.1e-05 kPa and 0.000223 ± 1.1e-05 kPa
[1]; 302.26 K
  vapor or sublimation pressure: 0.000294 ± 1.5e-05 kPa and 0.000296 ± 1.5e-05 kPa
[1]; 304.29 K
  vapor or sublimation pressure: 0.000353 ± 1.8e-05 kPa and 0.000365 ± 1.8e-05 kPa and 0.000368 ± 1.8e-05 kPa
[1]; 306.28 K
  vapor or sublimation pressure: 0.000452 ± 2.3e-05 kPa and 0.000454 ± 2.3e-05 kPa and 0.000444 ± 2.2e-05 kPa
[1]; 308.2 K
  vapor or sublimation pressure: 0.000562 ± 2.8e-05 kPa and 0.000563 ± 2.8e-05 kPa and 0.000565 ± 2.8e-05 kPa
[1]; 310.15 K
  vapor or sublimation pressure: 0.000715 ± 3.6e-05 kPa and 0.000717 ± 3.6e-05 kPa and 0.000701 ± 3.5e-05 kPa
[1]; 312.16 K
  vapor or sublimation pressure: 0.000889 ± 4.5e-05 kPa and 0.000882 ± 4.4e-05 kPa
[1]; 314.05 K
  vapor or sublimation pressure: 0.00108 ± 0.00011 kPa and 0.00106 ± 0.00011 kPa
[1]
  Normal melting temperature: 125.46 ± 0.39 °C
[2]
  Molar enthalpy of transition or fusion: 5.64 ± 0.263 kcal/mol
